Assay results published in patent US20200223889A1, “Bicyclic Compounds Capable of Binding to Melanocortin 4 Receptor” (Novo Nordisk A/S, priority 2017, published 2020).
Read-outs that look alike come from different tables or passages of the source. Starred links: 1 amine or outer side, 2 acyl side, 3 side chain; linkers in the order of their positions; H or OH if unused. Positions of bridges follow the written chain, without caps; N, C: chain ends. Non-standard residues stand in square brackets, D forms with d. Residues, ends and D or L forms follow the SMILES beside them. Pen = CC(C)(S)[C@H](N)C(=O)O; d(hCys) = N[C@H](CCS)C(=O)O; Api = NC1(C(=O)O)CCNCC1; Aze = O=C(O)[C@@H]1CCN1; X1 = C(CN[*:2])CS[*:1]; Sar = CNCC(=O)O

Tests used:
human MC4R [1] = biological target: T1, human MC4R (Homo sapiens, UniProt P32245); assay: 125NDP-α-MSH competitive binding to membranes of BHK cells expressing human MC4 receptor (filtration assay)
T1 construct: expressed in transfected cells
T1 sequence (P32245 whole entry): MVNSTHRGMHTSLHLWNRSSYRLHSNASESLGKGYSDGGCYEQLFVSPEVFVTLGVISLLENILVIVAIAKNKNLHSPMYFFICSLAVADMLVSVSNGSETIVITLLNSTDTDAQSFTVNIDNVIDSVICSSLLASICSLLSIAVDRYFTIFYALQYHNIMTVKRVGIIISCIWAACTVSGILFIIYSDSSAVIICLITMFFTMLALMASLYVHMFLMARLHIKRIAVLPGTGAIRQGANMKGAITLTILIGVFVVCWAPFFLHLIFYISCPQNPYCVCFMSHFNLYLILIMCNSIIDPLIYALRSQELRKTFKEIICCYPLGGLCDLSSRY
Procedure: In Vitro ^125NDP-α-MSH Binding to Recombinant BHK Cells Expressing Human MC4 Receptor (Filtration Assay)
In order to assess the binding affinity of the selected compounds for the human MC4R competitive binding assays was performed with radiolabeled NDP-alpha MSH (^125NDP-α-MSH).
The assay was performed in 96-well filterplates (Unifilter) using BHK cells stably expressing the human MC4 receptor.
The BHK cell membranes were prepared from frozen or fresh cells that were homogenized in 20 mM HEPES pH 7.1, 5 mM MgCl2, 1 mg/ml bacitracin (buffer 1) and centrifuged at 15000 rpm at 4° C., 10 min in a Sorvall RC 5B plus, SS-34 rotor. The supernatant was discarded, and the pellets were re-suspended in buffer 1, homogenized and centrifuged two more times. The final pellets were re-suspended in buffer 1 and the protein concentration was measured and adjusted with buffer 1 to 5 mg/ml and the membrane preparation was kept at −80° C. until assay. The assay was run on a dilution of this cell membrane suspension without any further preparation. The suspension was diluted to give maximally 10% specific binding, i.e. to approx. 50-100 fold dilution, optimized after each membrane preparation. The assay was performed in a total volume of 200 μl: 50 μl of cell suspension, 50 μl of ^125NDP-α-MSH (apx. […] in final concentration), 50 μl of test compound and 50 μl binding buffer were mixed and incubated for 2 h at 25° C. (binding buffer: 25 mM HEPES, pH 7.0, 1 mM CaCl2), 1 mM MgSO4, 1 mM EGTA, 0.005% Tween™ 20 and 0.1% HSA or, alternatively, 0.1% ovalbumin (Sigma; catalogue No. A-5503)). Test compounds were dissolved in 100% DMSO and diluted in binding buffer in a dose range from 1 μM to 0.001 nM. Radiolabelled ligand and membranes were diluted in binding buffer. The incubation was stopped by dilution with 8×100 μl ice-cold 0.9% NaCl. The radioactivity retained on the filters was counted using a Packard Topcounter. The data were analysed by non-linear regression analysis of binding curves, using the Windows™ program GraphPad™ Prism (GraphPad Software, USA).

human MC4R [2] = biological target: T1, human MC4R; assay: Functional cAMP assay (CisBio HTRF) in BHK cells expressing human MC4R; assay type: cell-based; conditions: for MC1R/MC4R cAMP EC50 ratio: MC1R cAMP EC50 divided by MC4R cAMP EC50
Procedure: In order to assess the potency of the compounds on human MC1R and human MC4R cAMP signalling was measured.
cAMP induction was measured by c-AMPdynamic2 assay, HTRF 62AM4PEC system from CisBio for the human MC1R and human MC4R according to the protocol provided by the vendor. BHK cells expressing the human MC1 or MC4 receptor were generated by stable transfection with expression vectors encoding the cDNA of either MC1R or MC4R.
In details; 25 μl compound—or standard solution were added in the respective wells. Compound was reconstituted in buffer (DMEM w/o phenol red, 10 mM
Hepes, lx Glutamine, 0.1% OV-albumin1, 1 mM IBMX) and serially diluted starting at 2 μM, 10-fold seven times. Dilutions were carried out in the same aforementioned buffer to the desired working concentration ranges (2× higher than the final concentration). 25 μl cell solution was then added and allowed to incubate for 30 min while lightly shaking, at 25° C. […] The provided components for the assay were reconstituted according to the CisBio assay protocol “3.1 supplied reagents and preparation procedure” in MilliQ purification system H2O and diluted 1:20 in lysis buffer. 25 μl cAMP-d2 and 25 μl Cryptate conjugate were added to all wells.
Plates were centrifuged at 1500 rpm for 30 sec and incubated for 1 h, lightly shaking, at 25° C. in a hotel stacker. The plates were read on Mithras LB 940 provided by Berthold Technologies The data were analysed by non-linear regression analysis of binding curves, using the Windows™ program GraphPad™ Prism (GraphPad Software, USA).
The latter is used when no full curve can be obtained in the concentration ranges indicated above.

[3] = human MC4R, BHK cell membranes, 125NDP-α-MSH radioligand, read-out: MC4R binding Ki
[4] = BHK cells expressing human MC4R, '>' = highest dose used with no response, read-out: MC4R cAMP EC50

Row | Structure (SMILES) | Ki (human MC4R [1]; [3]) | MC1R/MC4R cAMP EC50 ratio (human MC4R [2]) | EC50 (human MC4R [2]; [4]) | Ki (human MC4R [1]) | EC50 (human MC4R [2])
1 | C[C@@H]1NC(=O)[C@@H]2CSSC[C@H](NC(=O)[C@H](Cc3c[nH]c4ccccc34)NC(=O)[C@H](CCCCN)NC(=O)[C@H](CCCCN)NC(=O)[C@H](CCCCN)NC1=O)C(=O)N1CC[C@H]1C(=O)N[C@@H](Cc1c[nH]cn1)C(=O)N[C@H](Cc1ccccc1)C(=O)N[C@@H](Cc1c[nH]cn1)C(=O)N[C@@H](Cc1c[nH]c3ccccc13)C(=O)N2 [Chem. 82, c[c[Cys-AZE-His-D-Phe-His-Trp-Cys]- Ala-Lys-Lys-Lys-Trp]] (cyclo(AKKKWC[Aze]H[dF]HWC); disulfide 6-12) | 0.07 nM | 178 | – | – | –
2 | C[C@@H]1NC(=O)[C@@H]2CSSC[C@H](NC(=O)[C@H](CCCNC(=N)N)NC(=O)[C@H](CCCCN)NC(=O)[C@H](CCCCN)NC(=O)[C@H](CCCCN)NC1=O)C(=O)N[C@@H](CCCCN)C(=O)N[C@@H](Cc1c[nH]cn1)C(=O)N[C@H](Cc1ccccc1)C(=O)N[C@@H](Cc1c[nH]cn1)C(=O)N[C@@H](Cc1c[nH]c3ccccc13)C(=O)N2 [Chem. 78, c[c[Cys-Lys-His-D-Phe-His-Trp-Cys]- Ala-Lys-Lys-Lys-Arg]] (cyclo(AKKKRCKH[dF]HWC); disulfide 6-12) | 0.02 nM | 95 | 0.04 nM | – | –
3 | C[C@@H]1NC(=O)[C@@H]2CSSC[C@H](NC(=O)[C@H](Cc3c[nH]c4ccccc34)NC(=O)[C@H](CCCCN)NC(=O)[C@@H](Cc3ccccc3)NC(=O)[C@H](Cc3c[nH]cn3)NC1=O)C(=O)N[C@@H](C)C(=O)N[C@@H](Cc1c[nH]cn1)C(=O)N[C@H](Cc1ccccc1)C(=O)N[C@@H](CCCCN)C(=O)N[C@@H](Cc1c[nH]c3ccccc13)C(=O)N2 [Chem. 15, c[c[Cys-Ala-His-D-Phe-Lys-Trp-Cys]- Ala-His-D-Phe-Lys-Trp]] (cyclo(AH[dF]KWCAH[dF]KWC); disulfide 6-12) | 0.12 nM | 60 | 0.09 nM | – | –
4 | C[C@@H]1NC(=O)[C@@H]2CSSC(C)(C)[C@H](NC(=O)[C@H](Cc3c[nH]c4ccccc34)NC(=O)[C@H](CCCNC(=N)N)NC(=O)[C@@H](Cc3ccccc3)NC(=O)[C@H](Cc3c[nH]cn3)NC1=O)C(=O)N[C@@H](C)C(=O)N[C@@H](Cc1c[nH]cn1)C(=O)N[C@H](Cc1ccccc1)C(=O)N[C@@H](CCCNC(=N)N)C(=O)N[C@@H](Cc1c[nH]c3ccccc13)C(=O)N2 [Chem. 63, c[c[Pen-Ala-His-D-Phe-Arg-Trp-Cys]- Ala-His-D-Phe-Arg-Trp]] | 0.08 nM | 42 | 0.02 nM | – | –
5 | C[C@@H]1NC(=O)[C@@H]2CSSC(C)(C)[C@H](NC(=O)[C@H](CCCNC(=N)N)NC(=O)[C@H](CCCCN)NC(=O)[C@H](CCCCN)NC(=O)[C@H](CCCCN)NC1=O)C(=O)N1CCC[C@H]1C(=O)N[C@@H](Cc1c[nH]cn1)C(=O)N[C@H](Cc1ccccc1)C(=O)N[C@@H](Cc1c[nH]cn1)C(=O)N[C@@H](Cc1c[nH]c3ccccc13)C(=O)N2 [Chem. 92, c[c[Pen-Pro-His-D-Phe-His-Trp-Cys]- Ala-Lys-Lys-Lys-Arg]] (cyclo(AKKKR[Pen]PH[dF]HWC); disulfide 6-12) | 0.04 nM | 362 | 0.13 nM | – | –
6 | NCCCC[C@@H]1NC(=O)[C@H](CCCCN)NC(=O)[C@H](CCCCN)NC(=O)[C@@H]2CSSC[C@H](NC(=O)[C@H](Cc3c[nH]c4ccccc34)NC(=O)[C@H](CCCCN)NC1=O)C(=O)N[C@@H](CCCCN)C(=O)N[C@@H](Cc1c[nH]cn1)C(=O)N[C@H](Cc1ccccc1)C(=O)N[C@@H](Cc1c[nH]cn1)C(=O)N[C@@H](Cc1c[nH]c3ccccc13)C(=O)N2 [Chem. 77, c[c[Cys-Lys-His-D-Phe-His-Trp-Cys]- Lys-Lys-Lys-Lys-Trp]] (cyclo(CKH[dF]HWCKKKKW); disulfide 1-7) | 0.72 nM | 108 | – | – | –
7 | N=C(N)NCCC[C@@H]1NC(=O)[C@@H](Cc2ccccc2)NC(=O)[C@H](Cc2c[nH]cn2)NC(=O)C2(CCNCC2)NC(=O)[C@@H]2CSSC[C@H](NC(=O)[C@H](Cc3c[nH]c4ccccc34)NC1=O)C(=O)NC1(CCNCC1)C(=O)N[C@@H](Cc1c[nH]cn1)C(=O)N[C@H](Cc1ccccc1)C(=O)N[C@@H](CCCNC(=N)N)C(=O)N[C@@H](Cc1c[nH]c3ccccc13)C(=O)N2 [Chem. 47, c[c[Cys-ACP-His-D-Phe-Arg-Trp- Cys]-ACP-His-D-Phe-Arg-Trp]] (cyclo([Api]H[dF]RWC[Api]H[dF]RWC); disulfide 6-12) | – | 23 | – | 0.72 nM | 0.12 nM
8 | N=C(N)NCCC[C@@H]1NC(=O)[C@@H](Cc2ccccc2)NC(=O)[C@H](Cc2c[nH]cn2)NC(=O)[C@@H]2CCCN2C(=O)[C@@H]2CSSC[C@H](NC(=O)[C@H](Cc3c[nH]c4ccccc34)NC1=O)C(=O)N1CCC[C@H]1C(=O)N[C@@H](Cc1c[nH]cn1)C(=O)N[C@H](Cc1ccccc1)C(=O)N[C@@H](CCCNC(=N)N)C(=O)N[C@@H](Cc1c[nH]c3ccccc13)C(=O)N2 [Chem. 30, c[c[Cys-Pro-His-D-Phe-Arg-Trp-Cys]- Pro-His-D-Phe-Arg-Trp]] (cyclo(CPH[dF]RWCPH[dF]RW); disulfide 1-7) | 0.09 nM | 5 | 0.03 nM | – | –
9 | CC(=O)N[C@@H](C)C(=O)N[C@@H](Cc1c[nH]cn1)C(=O)N[C@H](Cc1ccccc1)C(=O)N[C@@H](CCCNC(=N)N)C(=O)N[C@@H](Cc1c[nH]c2ccccc12)C(=O)N[C@@H]1CCSSCCCNC(=O)[C@H](Cc2c[nH]c3ccccc23)NC(=O)[C@H](CCCNC(=N)N)NC(=O)[C@@H](Cc2ccccc2)NC(=O)[C@H](Cc2c[nH]cn2)NC(=O)[C@H](C)NC1=O [Chem. 3, c[c[HCys-Ala-His-D-Phe-Arg-Trp- HCys]-Ala-His-D-Phe-Arg-Trp]] (Ac-AH[dF]RW[d(hCys)]AH[dF]RW; linker 6-C via X1) | 0.42 nM | 28 | 0.26 nM | – | –
10 | CN1CC(=O)N[C@@H](Cc2c[nH]cn2)C(=O)N[C@H](Cc2ccccc2)C(=O)N[C@@H](CCCNC(=N)N)C(=O)N[C@@H](Cc2c[nH]c3ccccc23)C(=O)N[C@H]2CSSC[C@H](NC(=O)[C@H](Cc3c[nH]c4ccccc34)NC(=O)[C@H](CCCNC(=N)N)NC(=O)[C@@H](Cc3ccccc3)NC(=O)[C@H](Cc3c[nH]cn3)NC(=O)CN(C)C2=O)C1=O [Chem. 31, c[c[Cys-Sar-His-D-Phe-Arg-Trp-Cys]- Sar-His-D-Phe-Arg-Trp]] (cyclo(C[Sar]H[dF]RWC[Sar]H[dF]RW); disulfide 1-7) | – | 27 | 0.29 nM | – | –
11 | C[C@@H]1NC(=O)[C@@H]2CSSC[C@H](NC(=O)[C@H](Cc3c[nH]c4ccccc34)NC(=O)[C@H](Cc3c[nH]cn3)NC(=O)[C@@H](Cc3ccccc3)NC(=O)[C@H](Cc3c[nH]cn3)NC1=O)C(=O)N[C@@H](C)C(=O)N[C@@H](Cc1c[nH]cn1)C(=O)N[C@H](Cc1ccccc1)C(=O)N[C@@H](Cc1c[nH]cn1)C(=O)N[C@@H](Cc1c[nH]c3ccccc13)C(=O)N2 [Chem. 24, c[c[Cys-Ala-His-D-Phe-His-Trp-Cys]- Ala-His-D-Phe-His-Trp]] (cyclo(AH[dF]HWCAH[dF]HWC); disulfide 6-12) | – | 364 | 0.49 nM | – | –
